{
  "source": "patent US8119616B2",
  "about": "“Formulation of quinazoline based EGFR inhibitors containing a zinc binding moiety” (Curis, Inc., priority 2007, dated 2012)",
  "type_in_all_cases": "cell-based",
  "key": {"[1]": {"tested_on": "Breast_SkBr3", "test": "Cell proliferation assay (ATPlite)", "settings": "72 hours, 0.5% fetal bovine serum", "description": "(§1) A representative number of compounds were assayed against several different cell lines using the cell proliferation assay:\n(§2) Cell Proliferation Assay:\n(§3) Cancer cell lines were plated at 5,000 to 10,000 per well in 96-well flatted bottomed plates with various concentration of compounds. The cells were incubated with compounds for 72 hours in the presence of 0.5% of fetal bovine serum. Growth inhibition was accessed by adenosine triphosphate (ATP) content assay using Perkin Elmer ATPlite kit. ATPlite is an ATP monitoring system based on firefly luciferase. Briefly, 25 μl of mammalian cell lysis solution was added to 50 μl of phenol red-free culture medium per well to lyse the cells and stabilize the ATP. 25 μl of substrate solution was then added to the well and subsequently the luminescence was measured."}, "[2]": {"tested_on": "Pancreas_Capan1", "test": "Cell proliferation assay (ATPlite)", "settings": "72 hours, 0.5% fetal bovine serum", "description": "as §1, §2, §3"}, "[3]": {"tested_on": "Pancreas_BxPC3", "test": "Cell proliferation assay (ATPlite)", "settings": "72 hours, 0.5% fetal bovine serum", "description": "as §1, §2, §3"}, "[4]": {"tested_on": "Breast_MCF7", "test": "Cell proliferation assay (ATPlite)", "settings": "72 hours, 0.5% fetal bovine serum", "description": "as §1, §2, §3"}, "[5]": {"tested_on": "Lung_H2122", "test": "Cell proliferation assay (ATPlite)", "settings": "72 hours, 0.5% fetal bovine serum", "description": "as §1, §2, §3"}, "[6]": {"tested_on": "Lung_H358", "test": "Cell proliferation assay (ATPlite)", "settings": "72 hours, 0.5% fetal bovine serum", "description": "as §1, §2, §3"}, "[7]": {"tested_on": "Pancreas_PANC1", "test": "Cell proliferation assay (ATPlite)", "settings": "72 hours, 0.5% fetal bovine serum", "description": "as §1, §2, §3"}, "[8]": {"tested_on": "Prostate_22RV1", "test": "Cell proliferation assay (ATPlite)", "settings": "72 hours, 0.5% fetal bovine serum", "description": "as §1, §2, §3"}, "[9]": {"tested_on": "Breast_MDAMB468", "test": "Cell proliferation assay (ATPlite)", "settings": "72 hours, 0.5% fetal bovine serum", "description": "as §1, §2, §3"}, "[10]": {"tested_on": "Colon_HCT116", "test": "Cell proliferation assay (ATPlite)", "settings": "72 hours, 0.5% fetal bovine serum", "description": "as §1, §2, §3"}, "[11]": {"tested_on": "Pancreas_HPAC", "test": "Cell proliferation assay (ATPlite)", "settings": "72 hours, 0.5% fetal bovine serum", "description": "as §1, §2, §3"}, "[12]": {"tested_on": "Epidermoid_A431", "test": "Cell proliferation assay (ATPlite)", "settings": "72 hours, 0.5% fetal bovine serum", "description": "as §1, §2, §3"}, "[13]": {"tested_on": "Pancreas_MiaPaCa2", "test": "Cell proliferation assay (ATPlite)", "settings": "72 hours, 0.5% fetal bovine serum", "description": "as §1, §2, §3"}, "[14]": {"tested_on": "Lung_H460", "test": "Cell proliferation assay (ATPlite)", "settings": "72 hours, 0.5% fetal bovine serum", "description": "as §1, §2, §3"}, "[15]": {"tested_on": "Pancreas_CFPAC", "test": "Cell proliferation assay (ATPlite)", "settings": "72 hours, 0.5% fetal bovine serum", "description": "as §1, §2, §3"}, "[16]": {"tested_on": "Lung_H292", "test": "Cell proliferation assay (ATPlite)", "settings": "72 hours, 0.5% fetal bovine serum", "description": "as §1, §2, §3"}, "[17]": {"tested_on": "Prostate_PC3", "test": "Cell proliferation assay (ATPlite)", "settings": "72 hours, 0.5% fetal bovine serum", "description": "as §1, §2, §3"}, "[18]": {"tested_on": "HCT-116 (colon) and SKBr3 (breast) cancer cells", "test": "Induction of apoptosis (Caspase 3&7 activity)", "settings": "HCT-116 and SKBr3, 24 hours"}},
  "data": [
    {"smiles": "C#Cc1cccc(Nc2ncnc3cc(OC)c(OCCCCCCC(=O)NO)cc23)c1", "note": "[Compound 12, 7-(4-(3-ethynylphenylamino)-7-methoxyquinazolin-6-yloxy)-N-hydroxyheptanamide]", "values": [
      {"measurement": "IC50", "setting": "[1]", "result": "100 to 1000", "unit": "nM"},
      {"measurement": "IC50", "setting": "[2]", "result": "100 to 1000", "unit": "nM"},
      {"measurement": "IC50", "setting": "[3]", "result": "< 100", "unit": "nM"},
      {"measurement": "IC50", "setting": "[4]", "result": "< 100", "unit": "nM"},
      {"measurement": "IC50", "setting": "[5]", "result": "100 to 1000", "unit": "nM"},
      {"measurement": "IC50", "setting": "[6]", "result": "100 to 1000", "unit": "nM"},
      {"measurement": "IC50", "setting": "[7]", "result": "100 to 1000", "unit": "nM"},
      {"measurement": "IC50", "setting": "[8]", "result": "100 to 1000", "unit": "nM"},
      {"measurement": "IC50", "setting": "[9]", "result": "< 100", "unit": "nM"},
      {"measurement": "IC50", "setting": "[10]", "result": "100 to 1000", "unit": "nM"},
      {"measurement": "IC50", "setting": "[11]", "result": "1000 to 10000", "unit": "nM"},
      {"measurement": "IC50", "setting": "[12]", "result": "100 to 1000", "unit": "nM"},
      {"measurement": "IC50", "setting": "[13]", "result": "100 to 1000", "unit": "nM"},
      {"measurement": "IC50", "setting": "[14]", "result": "100 to 1000", "unit": "nM"},
      {"measurement": "IC50", "setting": "[15]", "result": "100 to 1000", "unit": "nM"},
      {"measurement": "IC50", "setting": "[16]", "result": "< 100", "unit": "nM"},
      {"measurement": "IC50", "setting": "[17]", "result": "100 to 1000", "unit": "nM"},
      {"measurement": "cell apoptosis as measured by increased Caspase 3&7 activity", "setting": "[18]", "result": "4-11 times"}
    ]}
  ]
}
